{
  "source": "patent US4201725A",
  "about": "“Secondary amines” (priority 1974, dated 1980)",
  "key": {"[1]": {"test_system": "neuroleptic-induced catatonia", "experiment": "Suppression of neuroleptic (prochlorperazine)-induced catatonia (curative treatment)", "type": "in vivo, rat (male, OFA strain)", "details": "5 mg/kg vs 80 mg/kg amantadine", "description": "Batches of 5 male rats of the OFA strain were given 12.5 mg/kg of prochlorperazine by intraperitoneal route. Fifty-five minutes later, an oral dose in aqueous solution of the compound to be studied was administered to all the animals with the exception of the control group. The progress of the catatonia was noted following the same scale as that used in the tests described above."}, "[2]": {"test_system": "reserpine-induced catatonia", "experiment": "Inhibition of reserpine-induced catatonia (preventive, oral compound 30 min before reserpine)", "type": "in vivo, rat (male, OFA strain)", "details": "rat, in vivo", "description": "After sufficient doses of reserpine have been administered to the rat, a series of symptoms occur, more particularly ptosis, catatonia and a drop in central temperature. These symptoms are caused by the depletion of the intragranular reserve pool of biogenetic amines at the synaptic terminals.\nAn oral dose of the compound to be studied in aqueous solution was administered to batches of 10 male rats of the OFA strain weighing about 150 to 200 g. Thirty minutes later a dose of 5 mg/kg of reserpine was given by intraperitoneal route. Three hours after the injection of reserpine, the animals were suspended by the four paws to a horizontally stretched wire fixed at 15 cm from the ground. The catatonia animals were those which maintained the position so given for at least 30 seconds. […] The maximum score was therefore 10 per batch. An identical trial was undertaken with control animals which received reserpine but none of the compounds being studied."}, "[3]": {"test_system": "reserpine-induced catatonia", "experiment": "Suppression of reserpine-induced catatonia (curative treatment)", "type": "in vivo, rat (male, OFA strain)", "details": "2.5 and 5 mg/kg oral vs 80 mg/kg amantadine", "description": "Batches of 5 male rats of the OFA strain, weighing 150 to 200 g were given 5 mg/kg of reserpine by intraperitoneal route. One hour and 45 minutes later, namely when the animals were in a state of catatonia, an aqueous dose of the compound to be studied was administered by oral route to all the animals with the exception of the control group.\nThe progress of the catatonia was then noted following the scale used in the tests described hereabove.\nThe maximum score was thus 5 per batch which means that all the animals of the batch were considered to be still in a state of catatonia."}, "[4]": {"details": "SPERBER et al., J. Amer. Chem. Soc., 71, 3352 (1949); cited from earlier work"}, "[5]": {"test_system": "isolated duodenum of the rat", "experiment": "MAGNUS test: cholinolytic/spasmolytic activity on acetylcholine spasm in vitro", "excerpt": "This test consists in determining the dose of acetylcholine which, when added to the bath, provokes spasm of the isolated duodenum of the rat. The next step consists in determining the dose of the compound under study which, when added to the bath 30 seconds before the acetylcholine, reduces the spasm."}, "[6]": {"test_system": "arterial pressure and nictitating membrane (norepinephrine)", "experiment": "Influence on peripheral noradrenergic phenomena (norepinephrine, anaesthetized cat)", "details": "for Contractile reaction of the nictitating membrane without electric stimulation: at 0 mg/kg: 0; for Contractile reaction of the nictitating membrane with electric stimulation: at 0 mg/kg: Compound 1 17, amantadine 20; for Increase in arterial pressure after injection of norepinephrine: at 0 mg/kg: Compound 1 26, amantadine 28", "method": "A cat, anaesthetized with pentobarbital, received a sufficient dose of norepinephrine to increase arterial pressure but not sufficient to cause contraction of the nictitating membrane. Arterial pressure was measured at the carotid immediately after administration of the dose of norepinephrine."}, "[7]": {"details": "SPERBER et al., J. Amer. Chem. Soc., 71, 3352 (1949); cited from earlier work", "remark": "listed apart in the source"}, "[8]": {"test_system": "catalepsy", "experiment": "Prochlorperazine-induced catalepsy (crossing of homolateral paws)", "type": "in vivo, rat", "details": "5 mg/kg oral 30 min before prochlorperazine i.p.; 3 h after injection", "description": "Additional trials were carried out on rats with Compound 1 and amantadine. These trails involved catalepsy as evidenced by the crossing of the animal's homolateral paws."}, "[9]": {"experiment": "Spasmolytic activity in vivo", "details": "at antiparkinson doses, well below the toxic dose"}, "[10]": {"test_system": "cholinergic effects of tremorine", "experiment": "Anti-tremorine test in vivo", "parameters": "species or system mice (male, OF1 strain)", "description": "When injected into mice, tremorine produces peripheral effects i.e. weeping, sweating, salivation and diarrhoea and central effects i.e. tremor and akinesia. Such effects are due to an increase in the amount of intracerebral acetylcholine and serotonine.\n[…] Thirty minutes later a dose of 10 mg/kg of tremorine was injected by intraperitoneal route and, at different times after this injection, note was taken of the cholinergic effects on each animal in accordance with the following scale:"}},
  "note": "Entries after “also recorded” stand apart in the source; their conditions may differ. Like-named read-outs stand apart in the source and are kept apart here.",
  "data": [
    {"molecule": "CCCC(N)(CCC)CCC", "note": "[Compound 1]", "values": [
      {"measurement": "action against neuroleptic-induced catatonia (in words)", "setting": "[1]", "value": "acts against neuroleptic-induced catatonia more rapidly than does a dose of 80 mg/kg of amantadine"},
      {"measurement": "activity in pharmacological trials (in words)", "setting": "[2]", "value": "marked degree of activity"},
      {"measurement": "suppression of reserpine-induced catatonia (in words)", "setting": "[3]", "value": "suppresses reserpine-induced catatonia more rapidly than a dose of 80 mg/kg of amantadine"},
      {"measurement": "toxicity (in words)", "setting": "[4]", "value": "more toxic than the corresponding trialkylethylamines"},
      {"measurement": "spasmolytic / cholinolytic activity in vitro (in words)", "setting": "[5]", "value": "virtually non-existent in comparison with that of atropine; also recorded: extremely weak cholinolytic action"},
      {"measurement": "spasmolytic / cholinolytic activity in vitro (in words)", "setting": "[5]; listed as tri-n-propylmethylamine", "value": "very weak, in fact practically non-existent"},
      {"measurement": "potentiation of norepinephrine / peripheral adrenergic effects (in words)", "setting": "[6]; cat, i.v.", "value": "does not potentiate the effects either of exogenous norepinephrine or of endogenous norepinephrine"},
      {"measurement": "Contractile reaction of the nictitating membrane without electric stimulation", "setting": "[6]; cumulative dose 0.1 mg/kg i.v.", "value": 0, "unit": "mm"},
      {"measurement": "Contractile reaction of the nictitating membrane with electric stimulation", "setting": "[6]; cumulative dose 0.1 mg/kg i.v.", "value": 15, "unit": "mm"},
      {"measurement": "Increase in arterial pressure after injection of norepinephrine", "setting": "[6]; cumulative dose 0.1 mg/kg i.v.", "value": 18, "unit": "mm Hg"},
      {"measurement": "Contractile reaction of the nictitating membrane without electric stimulation", "setting": "[6]; cumulative dose 1 mg/kg i.v.", "value": 0, "unit": "mm"},
      {"measurement": "Contractile reaction of the nictitating membrane with electric stimulation", "setting": "[6]; cumulative dose 1 mg/kg i.v.", "value": 16, "unit": "mm"},
      {"measurement": "Increase in arterial pressure after injection of norepinephrine", "setting": "[6]; cumulative dose 1 mg/kg i.v.", "value": 25, "unit": "mm Hg"},
      {"measurement": "Contractile reaction of the nictitating membrane without electric stimulation", "setting": "[6]; cumulative dose 3 mg/kg i.v.", "value": 0, "unit": "mm"},
      {"measurement": "Contractile reaction of the nictitating membrane with electric stimulation", "setting": "[6]; cumulative dose 3 mg/kg i.v.", "value": 17, "unit": "mm"},
      {"measurement": "Increase in arterial pressure after injection of norepinephrine", "setting": "[6]; cumulative dose 3 mg/kg i.v.", "value": 29, "unit": "mm Hg"},
      {"measurement": "Contractile reaction of the nictitating membrane without electric stimulation", "setting": "[6]; cumulative dose 5 mg/kg i.v.", "value": 0, "unit": "mm"},
      {"measurement": "Contractile reaction of the nictitating membrane with electric stimulation", "setting": "[6]; cumulative dose 5 mg/kg i.v.", "value": 16, "unit": "mm"},
      {"measurement": "Increase in arterial pressure after injection of norepinephrine", "setting": "[6]; cumulative dose 5 mg/kg i.v.", "value": 25, "unit": "mm Hg"},
      {"measurement": "Contractile reaction of the nictitating membrane without electric stimulation", "setting": "[6]; cumulative dose 10 mg/kg i.v.", "value": 0, "unit": "mm"},
      {"measurement": "Contractile reaction of the nictitating membrane with electric stimulation", "setting": "[6]; cumulative dose 10 mg/kg i.v.", "value": 12, "unit": "mm"},
      {"measurement": "Increase in arterial pressure after injection of norepinephrine", "setting": "[6]; cumulative dose 10 mg/kg i.v.", "value": 22, "unit": "mm Hg"},
      {"measurement": "spasmolytic activity (in words)", "setting": "[7]", "value": "less spasmolytic"},
      {"measurement": "inhibition of the catalepsy", "setting": "[8]", "value": "complete inhibition of the catalepsy"},
      {"measurement": "spasmolytic activity in vivo (in words)", "setting": "[9]", "value": "non-existent"},
      {"measurement": "antitremorine properties (in words)", "setting": "[10]; 5 mg/kg Compound 1, 40 mg/kg amantadine", "value": "devoid of antitremorine properties"},
      {"measurement": "central cholinergic effects (normal and provoked tremor)", "setting": "[10]; 5 mg/kg oral, identical to the peripheral score of 4", "value": "Identical results"},
      {"measurement": "cholinolytic properties in vivo (in words)", "setting": "[10]; therapeutic doses", "value": "absence of cholinolytic properties"}
    ]}
  ]
}
